Results on three compounds are retold here after ChEMBL document CHEMBL4270534, “Novel carbazole-triazole conjugates as DNA-targeting membrane active potentiators against clinical isolated fungi” (Eur J Med Chem, 2018).

In data set [1] the test system is Candida albicans. The experiment in a line: Antifungal activity against Candida albicans after 24 hrs by two-fold broth microdilution assay. It is filed as functional. (In general: In broth dilution the organism is exposed to a series of concentrations in liquid medium.)
For data set [2], the system named is Candida tropicalis. The data set can be described thus: Antifungal activity against Candida tropicalis after 24 hrs by two-fold broth microdilution assay. It is filed as functional.
For data set [3], the system named is Aspergillus fumigatus. The experiment in a line: Antifungal activity against Aspergillus fumigatus after 24 hrs by two-fold broth microdilution assay. It is filed as functional.
Data set [4] has as its system Candida albicans. The data set can be described thus: Antifungal activity against Candida albicans ATCC 90023 after 24 hrs by two-fold broth microdilution assay. The format is functional. As to conditions: ATCC 90023, 24 h.
The test system of data set [5] is Candida parapsilosis. The data set can be described thus: Antifungal activity against Candida parapsilosis ATCC 22019 after 24 hrs by two-fold broth microdilution assay. As to conditions: Lodderomyces parapsilosis, ATCC 22019, 24 h. It is filed as functional.
The subject of data set [6] is Candida albicans. The data set can be described thus: Antifungal activity against Candida albicans assessed as ratio of MIC after and before 10 serial passages. The format is functional.
Data set [7] relates to Candida albicans. The data set can be described thus: Fungicidal activity against Candida albicans incubated for 24 hrs followed by plating onto tryptic soy agar medium and measured after 24 hrs by broth microdilution method. It is filed as functional.
Data set [8] concerns Candida tropicalis. The data set can be described thus: Fungicidal activity against Candida tropicalis incubated for 24 hrs followed by plating onto tryptic soy agar medium and measured after 24 hrs by broth microdilution method. It is filed as functional.
The test system of data set [9] is Candida parapsilosis. The experiment in a line: Fungicidal activity against Candida parapsilosis ATCC 22019 incubated for 24 hrs followed by plating onto tryptic soy agar medium and measured after 24 hrs by broth microdilution method. The format is functional. As to conditions: Lodderomyces parapsilosis, ATCC 22019, 24 h.
Data set [10] relates to Candida albicans. The data set can be described thus: Ratio of MFC to MIC for Candida albicans. The format is functional.
Data set [11] concerns Candida tropicalis. The data set can be described thus: Ratio of MFC to MIC for Candida tropicalis. It is filed as functional.
For data set [12], the system named is Candida parapsilosis. The data set can be described thus: Ratio of MFC to MIC for Candida parapsilosis ATCC 22019. The format is functional.
Data set [13] deals with Candida albicans. The data set can be described thus: Synergistic antifungal activity against Candida albicans after 18 hrs in presence of fluconazole by checkerboard assay. It is filed as functional.
The test system of data set [14] is Candida tropicalis. The experiment in a line: Synergistic antifungal activity against Candida tropicalis after 18 hrs in presence of fluconazole by checkerboard assay. It is filed as functional.
In data set [15] the test system is Aspergillus fumigatus. The data set can be described thus: Synergistic antifungal activity against Aspergillus fumigatus after 18 hrs in presence of fluconazole by checkerboard assay. The format is functional.
The subject of data set [16] is Candida albicans. The data set can be described thus: Synergistic antifungal activity against Candida albicans assessed as FIC index after 18 hrs in presence of fluconazole by checkerboard assay. The format is functional.
Data set [17] relates to Candida tropicalis. The experiment in a line: Synergistic antifungal activity against Candida tropicalis assessed as FIC index after 18 hrs in presence of fluconazole by checkerboard assay. The format is functional.
The test system of data set [18] is Aspergillus fumigatus. The data set can be described thus: Synergistic antifungal activity against Aspergillus fumigatus assessed as FIC index after 18 hrs in presence of fluconazole by checkerboard assay. It is filed as functional.
In data set [19] the test system is Staphylococcus aureus. The data set can be described thus: Antibacterial activity against Staphylococcus aureus after 24 hrs by micro broth dilution method. The format is functional.
In data set [20] the test system is Staphylococcus aureus. The data set can be described thus: Antibacterial activity against methicillin-resistant Staphylococcus aureus after 24 hrs by micro broth dilution method. The format is functional.
Another data set deals with Enterococcus faecalis. The data set can be described thus: Antibacterial activity against Enterococcus faecalis after 24 hrs by micro broth dilution method. It is filed as functional.
Data set [21] relates to Staphylococcus aureus. The data set can be described thus: Antibacterial activity against Staphylococcus aureus ATCC 25923 after 24 hrs by micro broth dilution method. The format is functional. As to conditions: ATCC 25923, 24 h.
In data set [22] the test system is Staphylococcus aureus. The data set can be described thus: Antibacterial activity against Staphylococcus aureus ATCC 29213 after 24 hrs by micro broth dilution method. It is filed as functional. As to conditions: ATCC 29213, 24 h.
The next data set deals with Klebsiella pneumoniae. The experiment in a line: Antibacterial activity against Klebsiella pneumoniae after 24 hrs by micro broth dilution method. It is filed as functional.
Data set [23] deals with Escherichia coli. The experiment in a line: Antibacterial activity against Escherichia coli after 24 hrs by micro broth dilution method. The format is functional.
For a further data set, the system named is Acinetobacter baumannii. The data set can be described thus: Antibacterial activity against Acinetobacter baumannii after 24 hrs by micro broth dilution method. The format is functional.
Data set [24] deals with Pseudomonas aeruginosa. The experiment in a line: Antibacterial activity against Pseudomonas aeruginosa after 24 hrs by micro broth dilution method. It is filed as functional.
Data set [25] relates to Pseudomonas aeruginosa. The data set can be described thus: Antibacterial activity against Pseudomonas aeruginosa ATCC 27853 after 24 hrs by micro broth dilution method. The format is functional. As to conditions: ATCC 27853, 24 h.
Data set [26] relates to Escherichia coli. The experiment in a line: Antibacterial activity against Escherichia coli ATCC 25922 after 24 hrs by micro broth dilution method. It is filed as functional. As to conditions: ATCC 25922, 24 h.
Data set [27] has as its system Candida albicans. The experiment in a line: Antifungal activity against Candida albicans at MIC after 10 serial passages. It is filed as functional, organism-based.
In data set [28] the test system is Candida tropicalis. The experiment in a line: Potency index, ratio of fluconazole MIC to test compound MIC for Candida tropicalis. The format is functional.
In data set [29] the test system is Candida parapsilosis. The data set can be described thus: Potency index, ratio of fluconazole MIC to test compound MIC for Candida parapsilosis ATCC 22019. It is filed as functional.
For data set [30], the system named is Candida albicans. The experiment in a line: Potentiation of fluconazole-induced antifungal activity against Candida albicans at MIC after 16 serial passages. It is filed as functional, organism-based.
In data set [31] the test system is Candida albicans. The data set can be described thus: Induction of cytoplasmic membrane depolarization in Candida albicans measured for 300 secs by DiSC3-5 dye based fluorescence spectral analysis. It is filed as functional, organism-based.
For data set [32], the system named is Calf thymus DNA. The experiment in a line: Binding affinity to calf thymus DNA assessed as hypochromic shift up to 2 x 10^-5mol/L by UV absorption spectral analysis. It is filed as nucleic-acid assay. As to conditions: Bos taurus.
The subject of data set [33] is Calf thymus DNA. The experiment in a line: Binding affinity to calf thymus DNA by UV absorption spectral analysis. It is filed as nucleic-acid assay. As to conditions: Bos taurus.
Data set [34] has as its system Calf thymus DNA. The experiment in a line: Displacement of neutral dye from calf thymus DNA up to 2 x 10^-5mol/L by UV absorption spectra analysis. It is filed as nucleic-acid assay. As to conditions: Bos taurus.
In data set [35] the test system is Calf thymus DNA. The experiment in a line: Binding affinity to calf thymus DNA assessed as Stern-Volmer quenching constant at 1 x 10^-5 mol/L in presence of potassium iodide by fluorescence assay (reference value: 12.9 L/mol). The format is nucleic-acid assay. As to conditions: Bos taurus.
A further data set concerns the target Albumin (Homo sapiens, UniProt P02768). The experiment in a line: Binding affinity to human serum albumin assessed as increase in peak intensity at tryptophan/tyrosine/phenylalanine residue up to 2 x 10^-5mol/L by UV-vis absorption spectra analysis. The format is ADME. As to conditions: isolated protein.

Converted amounts (≈) assume the structure as drawn. The source made the active and inactive calls.

Broadly, the MIC is the least concentration at which growth counts as inhibited. A word on the MFC: it is the smallest concentration meeting the test's criterion for killing the fungus.

Chain of Albumin (P02768 whole entry): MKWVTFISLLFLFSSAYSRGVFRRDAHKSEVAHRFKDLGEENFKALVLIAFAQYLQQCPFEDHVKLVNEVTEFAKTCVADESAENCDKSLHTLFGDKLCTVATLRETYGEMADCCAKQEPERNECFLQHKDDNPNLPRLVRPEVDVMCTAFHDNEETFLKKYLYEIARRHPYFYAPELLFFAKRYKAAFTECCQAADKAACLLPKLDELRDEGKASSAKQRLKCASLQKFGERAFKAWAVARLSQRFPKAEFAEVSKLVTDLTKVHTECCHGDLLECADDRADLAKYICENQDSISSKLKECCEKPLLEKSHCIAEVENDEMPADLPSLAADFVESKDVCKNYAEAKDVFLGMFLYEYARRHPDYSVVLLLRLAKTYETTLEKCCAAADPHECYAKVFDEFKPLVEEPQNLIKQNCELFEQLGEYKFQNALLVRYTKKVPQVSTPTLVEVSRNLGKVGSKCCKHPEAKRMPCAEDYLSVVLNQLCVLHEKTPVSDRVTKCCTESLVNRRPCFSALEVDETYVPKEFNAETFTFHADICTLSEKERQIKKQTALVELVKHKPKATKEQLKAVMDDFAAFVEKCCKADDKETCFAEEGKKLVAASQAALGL

Consider `OC(Cn1cncn1)(Cn1cncn1)c1ccc(F)cc1F` [FLUCONAZOLE], for which the MIC against Candida albicans [1] amounted to 4 µg/mL (≈ 13.1 µM); against Candida tropicalis [2], 8 µg/mL (≈ 26.1 µM); with Aspergillus fumigatus [3] it was 256 µg/mL (≈ 836 µM); against Candida albicans [4], 2 µg/mL (≈ 6.53 µM); in the data set on Candida parapsilosis [5], 4 µg/mL (≈ 13.1 µM). In addition, the Ratio with Candida albicans [6] amounted to 8.
As for `OC(Cn1cncn1)(Cn1c2ccccc2c2ccc(Br)cc21)c1ccc(F)cc1F` (configuration not stated), the MIC with Candida albicans [1] turned out to be 16 µg/mL (≈ 33.1 µM); in the data set with Candida tropicalis [2], 4 µg/mL (≈ 8.28 µM); in the data set with Aspergillus fumigatus [3], 64 µg/mL (≈ 132 µM); against Candida albicans [4], 16 µg/mL (≈ 33.1 µM); against Candida parapsilosis [5] it was 16 µg/mL (≈ 33.1 µM); in the data set on Candida albicans [13] it was 4 µg/mL. The MIC in the data set with Candida tropicalis [14] was 4 µg/mL; in the data set on Aspergillus fumigatus [15] it was 16 µg/mL; against Staphylococcus aureus [19], 64 µg/mL (≈ 132 µM); in the data set on Staphylococcus aureus [20], 16 µg/mL (≈ 33.1 µM); in the data set with Enterococcus faecalis, 32 µg/mL (≈ 66.2 µM); in the data set with Staphylococcus aureus [21], 16 µg/mL (≈ 33.1 µM). The MIC against Staphylococcus aureus [22] was 32 µg/mL (≈ 66.2 µM); with Klebsiella pneumoniae it was 128 µg/mL (≈ 265 µM); against Escherichia coli [23], 64 µg/mL (≈ 132 µM); with Acinetobacter baumannii, 64 µg/mL (≈ 132 µM); with Pseudomonas aeruginosa [24] it was 64 µg/mL (≈ 132 µM); in the data set with Pseudomonas aeruginosa [25] it was 128 µg/mL (≈ 265 µM). For the same compound, in the data set on Escherichia coli [26], the MIC came to 64 µg/mL (≈ 132 µM). The MFC was 16 µg/mL (≈ 33.1 µM) in the data set with Candida albicans [7], 4 µg/mL (≈ 8.28 µM) against Candida tropicalis [8] and 32 µg/mL (≈ 66.2 µM) with Candida parapsilosis [9]. In addition, the Ratio with Candida albicans [10] stood at 1; in the data set with Candida tropicalis [11], 1; with Candida parapsilosis [12], 2. The “fractional inhibitory concentration index (FICI)” value with Candida albicans [16] stood at 1.25; in the data set on Candida tropicalis [17], 1.5; in the data set with Aspergillus fumigatus [18], 0.32.
For `OC(Cn1cncn1)(Cn1c2ccc(Br)cc2c2cc(Br)ccc21)c1ccc(F)cc1F` (configuration not stated), the result in the data set on Candida albicans [27], in the data set with Candida albicans [30], with Calf thymus DNA [32] and with Calf thymus DNA [34] was Active. The MIC against Candida albicans [1] stood at 4 µg/mL (≈ 7.11 µM); in the data set with Candida tropicalis [2], 4 µg/mL (≈ 7.11 µM); with Aspergillus fumigatus [3] it was 32 µg/mL (≈ 56.9 µM); in the data set on Candida albicans [4], 8 µg/mL (≈ 14.2 µM); in the data set on Candida parapsilosis [5], 2 µg/mL (≈ 3.56 µM); in the data set on Candida albicans [13] it was 0.5 µg/mL. The MIC stood at 2 µg/mL in the data set with Candida tropicalis [14]; 16 µg/mL with Aspergillus fumigatus [15]; 64 µg/mL (≈ 114 µM) against Staphylococcus aureus [19]; 4 µg/mL (≈ 7.11 µM) against Staphylococcus aureus [20]; 32 µg/mL (≈ 56.9 µM) in the data set on Enterococcus faecalis; 32 µg/mL (≈ 56.9 µM) in the data set on Staphylococcus aureus [21]. The MIC against Staphylococcus aureus [22] stood at 16 µg/mL (≈ 28.5 µM); in the data set with Klebsiella pneumoniae it was 128 µg/mL (≈ 228 µM); with Escherichia coli [23] it was 16 µg/mL (≈ 28.5 µM); in the data set with Acinetobacter baumannii, 128 µg/mL (≈ 228 µM); in the data set with Pseudomonas aeruginosa [24], 64 µg/mL (≈ 114 µM); with Pseudomonas aeruginosa [25] it was 16 µg/mL (≈ 28.5 µM). In addition, in the data set on Escherichia coli [26], it took 32 µg/mL (≈ 56.9 µM) to inhibit growth (MIC). In addition, the Ratio with Candida tropicalis [28], with Candida parapsilosis [29], in the data set with Candida albicans [10], in the data set with Candida tropicalis [11] and in the data set with Candida parapsilosis [12] was 2 each time. The MFC in the data set on Candida albicans [7] is 8 µg/mL (≈ 14.2 µM); against Candida tropicalis [8] it was 8 µg/mL (≈ 14.2 µM); with Candida parapsilosis [9] it was 4 µg/mL (≈ 7.11 µM). Moreover, the entries for the “fractional inhibitory concentration index (FICI)” value in the data set on Candida albicans [16], in the data set with Candida tropicalis [17] and in the data set on Aspergillus fumigatus [18] were 0.25, 0.75 and 0.56, respectively. Moreover, the Activity entry with Candida albicans [31] is “Dose-dependent effect”; on Albumin, “Active”. This compound also registered a K with Calf thymus DNA [33] of 7.8 ×10³ L/mol. In addition, the KSV in the data set on Calf thymus DNA [35] worked out at 10 L/mol.
